Test results as given in US20250051319A1 (AUGUSTINE THERAPEUTICS, priority 2021, published 2025).

Molecular target: catalytic domain 2 (CD2) of HDAC6 (Homo sapiens (Human), UniProt Q9UBN7)
Assay: Cellular target engagement assay - NanoBRET
Type: cell-based
Conditions: NanoLuc-HDAC6(CD2) in HEK293T cells, 2 hours, read-out: IC50 (HDAC6(CD2) interaction)
Protocol: NanoBRET target engagement was performed against the catalytic domain 2 (CD2) of HDAC6, with minor modifications of kit manufacturer protocol (Promega). Expression of exogenous NanoLuc-HDAC6(CD2) fusion and in HEK293T was achieved following transient transfection with FuGENE HD Transfection Reagent (Promega). The intracellular target engagement assay on HDAC6(CD2) was performed in a 384-well plate format with 8,000 cells per well and a tracer concentration of 0.125 μM or 0.600 μM for HDAC6(CD2). Compounds (dissolved in 100% DMSO) or DMSO (vehicle) were added either manually by diluting them in culture medium at 8× final assay concentration and then adding 5 μL to assay plate or in an automated way by adding […] compound to 5 μL OptiMEM without phenol red (Gibco) using the Echo650 (Labcyte). Tracer solution was added to the cells before seeding 35 μL cell/tracer mixture in the assay plate. The final reaction volume was 40 μL, final DMSO concentration was 1.4% (manual compound addition) or 1.25% (automated compound addition). Assay plates were incubated at 37° C. in a humidified atmosphere containing 5% C02 for 2 hours. The NanoBRET Nano-glo Substrate/Inhibitor was prepared by diluting NanoBRET Nano-Glo Substrate (1:332) and Extracellular Inhibitor (1:1000) in assay medium (Promega). […] BRET ratios were calculated from acceptor/donor signal ratio (mBRET=acceptor/donor*1000) and normalized for each plate. Percentage inhibition was calculated by setting the mBRET obtained with cells without tracer to 100%, while the mBRET obtained with uninhibited cells with tracer was set to 0%. IC50-values were calculated from the percentage inhibition with the log(inhibitor) vs. response—Variable slope (four parameters) nonlinear regression in GraphPad Prism software.

catalytic domain 2 (CD2) of HDAC6, sequence (Q9UBN7 482-800): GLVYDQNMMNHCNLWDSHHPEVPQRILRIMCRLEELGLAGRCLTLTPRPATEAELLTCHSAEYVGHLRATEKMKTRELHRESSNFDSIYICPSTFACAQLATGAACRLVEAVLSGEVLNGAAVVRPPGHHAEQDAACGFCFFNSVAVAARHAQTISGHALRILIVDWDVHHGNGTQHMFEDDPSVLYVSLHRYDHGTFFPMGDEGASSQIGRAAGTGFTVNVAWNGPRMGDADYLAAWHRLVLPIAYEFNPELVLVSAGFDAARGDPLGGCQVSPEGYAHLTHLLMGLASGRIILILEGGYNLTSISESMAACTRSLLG

SMILES | IC50 [nM]
Cc1nc(SCC(=O)c2ccc(CNC(=O)CO)s2)c2c(F)c(Cl)ccc2n1 [Compound 146, N-((5-(2-((6-chloro-5-fluoro-2-methylquinazolin-4-yl)thio)acetyl)thiophen-2-yl)methyl)-2-hydroxyacetamide] | ≤ 100
COc1ccc2nc(C)nc(SCC(=O)c3ccc(CN4CCOCC4=O)s3)c2c1 [Example 137, 4-((5-(2-((6-methoxy-2-methylquinazolin-4-yl)thio)acetyl)thiophen-2-yl)methyl)morpholin-3-one] | 100 to 500
Cn1ncc2c(SCC(=O)c3ccc(CNC(=O)C(O)C(F)(F)F)s3)ncnc21 (stereo not shown) [Compound 42, 3,3,3-trifluoro-2-hydroxy-N-((5-(2-((1-methyl-1H-pyrazolo[3,4-d]pyrimidin-4-yl)thio)acetyl)thiophen-2-yl)methyl)propanamide] | 500 to 1000
O=C(CSc1nc(C(F)(F)F)nc2ncccc12)c1ccc(CN2CCC(O)C2=O)s1 (stereo in doubt) [Example 156, (R)-3-hydroxy-1-((5-(2-((2-(trifluoromethyl)pyrido[2,3-d]pyrimidin-4-yl)thio)acetyl)thiophen-2-yl)methyl)pyrrolidin-2-one] | ≤ 100
CC(=O)NCc1ccc(C(=O)CSc2ncnc3c2cnn3C)s1 [Example 103, N-((5-(2-((1-methyl-1H-pyrazolo[3,4-d]pyrimidin-4-yl)thio)acetyl)thiophen-2-yl)methyl)acetamide] | 500 to 1000
COc1cnc2nc(C)nc(SCC(=O)c3ccc(CN(C)C(=O)CO)s3)c2c1 [Compound 162, 2-hydroxy-N-((5-(2-((6-methoxy-2-methylpyrido[2,3-d]pyrimidin-4-yl)thio)acetyl)thiophen-2-yl)methyl)-N-methylacetamide] | 100 to 500
Cc1nc(SCC(=O)c2ccc(CNC(=O)CO)s2)c2cc(C3CC3)ccc2n1 [Compound 106, N-((5-(2-((6-cyclopropyl-2-methylquinazolin-4-yl)thio)acetyl)thiophen-2-yl)methyl)-2-hydroxyacetamide] | ≤ 100
Cc1nc(SCC(=O)c2ccc(CNC(=O)CO)s2)c2cc(NCC3CC3)ccc2n1 [Compound 78, N-((5-(2-((6-((cyclopropylmethyl)amino)-2-methylquinazolin-4-yl)thio)acetyl)thiophen-2-yl)methyl)-2-hydroxyacetamide] | ≤ 100
COc1ccc2nc(C)nc(SCC(=O)c3ccc(CNC(=O)C4(O)CC4)s3)c2c1 [Compound 50, 1-hydroxy-N-((5-(2-((6-methoxy-2-methylquinazolin-4-yl)thio)acetyl)thiophen-2-yl)methyl)cyclopropane-1-carboxamide] | 100 to 500
CCS(=O)(=O)NCc1ccc(C(=O)CSc2nc(C(F)(F)F)nc3ncccc23)s1 [Compound 127, N-((5-(2-((2-(trifluoromethyl)pyrido[2,3-d]pyrimidin-4-yl)thio)acetyl)thiophen-2-yl)methyl)ethanesulfonamide] | ≤ 100
Cc1nc(SCC(=O)c2ccc(CNC(=O)CO)s2)c2cc(N3CCCOCC3)ccc2n1 [Compound 83, 2-hydroxy-N-((5-(2-((2-methyl-6-(1,4-oxazepan-4-yl)quinazolin-4-yl)thio)acetyl)thiophen-2-yl)methyl)acetamide] | ≤ 100
COc1cccc2nc(C)nc(SCC(=O)c3ccc(CNC(=O)CO)s3)c12 [Compound 143, 2-hydroxy-N-((5-(2-((5-methoxy-2-methylquinazolin-4-yl)thio)acetyl)thiophen-2-yl)methyl)acetamide] | 100 to 500
O=C(CO)NCc1ccc(C(=O)CSc2nccn3nccc23)s1 [Example 182, 2-hydroxy-N-((5-(2-(pyrazolo[1,5-a]pyrazin-4-ylthio)acetyl)thiophen-2-yl)methyl)acetamide] | 1000 to 10000
Cn1cc2c(SCC(=O)c3ccc(CNC(=O)C(O)C(F)(F)F)s3)nc(C(F)(F)F)nc2n1 (stereo not shown) [Compound 46, 3,3,3-trifluoro-2-hydroxy-N-((5-(2-((2-methyl-6-(trifluoromethyl)-2H-pyrazolo[3,4-d]pyrimidin-4-yl)thio)acetyl)thiophen-2-yl)methyl)propanamide] | ≤ 100
Cn1cc2c(SCC(=O)c3ccc(CNC(=O)C4CC4(F)F)s3)nc(C(F)(F)F)nc2n1 (stereo not shown) [Compound 111, 2,2-difluoro-N-((5-(2-((2-methyl-6-(trifluoromethyl)-2H-pyrazolo[3,4-d]pyrimidin-4-yl)thio)acetyl)thiophen-2-yl)methyl)cyclopropane-1-carboxamide] | 100 to 500
COc1ccc2nc(C)nc(SCC(=O)c3ccc(CNC(=O)C4CN(C)C4)s3)c2c1 [Compound 178, N-((5-(2-((6-methoxy-2-methylquinazolin-4-yl)thio)acetyl)thiophen-2-yl)methyl)-1-methylazetidine-3-carboxamide] | ≤ 100
COc1ccc2nc(C)nc(SCC(=O)c3ccc(CNC(=O)C(F)(F)C(F)(F)F)s3)c2c1 [Example 40, 2,2,3,3,3-pentafluoro-N-((5-(2-((6-methoxy-2-methylquinazolin-4-yl)thio)acetyl)thiophen-2-yl)methyl)propanamide] | 1000 to 10000

The remaining lines, values ahead:

IC50 [nM] | SMILES
1000 to 10000 | O=C(CO)NCc1ccc(C(=O)CSc2nc3cc(C(F)(F)F)ccc3o2)s1 [Compound 105, 2-hydroxy-N-((5-(2-((5-(trifluoromethyl)benzo[d]oxazol-2-yl)thio)acetyl)thiophen-2-yl)methyl)acetamide]
≤ 100 | CC(NC(=O)CO)c1ccc(C(=O)CSc2nc3cnc(C(F)(F)F)cc3o2)s1 (stereo in doubt) [Example 129, (S)-2-hydroxy-N-(1-(5-(2-((6-(trifluoromethyl)oxazolo[4,5-c]pyridin-2-yl)thio)acetyl)thiophen-2-yl)ethyl)acetamide]
≤ 100 | O=C(CO)NCc1ccc(C(=O)CSc2nc(C(F)(F)F)nc3cc(C4CC4)nn23)s1 [Compound 112, N-((5-(2-((7-cyclopropyl-2-(trifluoromethyl)pyrazolo[1,5-a][1,3,5]triazin-4-yl)thio)acetyl)thiophen-2-yl)methyl)-2-hydroxyacetamide]
100 to 500 | CNc1cc(C(F)(F)F)cc2c(SCC(=O)c3ccc(CNC(=O)CO)s3)nc(C)nc12 [Compound 151, 2-hydroxy-N-((5-(2-((2-methyl-8-(methylamino)-6-(trifluoromethyl)quinazolin-4-yl)thio)acetyl)thiophen-2-yl)methyl)acetamide]
100 to 500 | Cc1nc(SCC(=O)c2ccc(CNC(=O)CO)s2)c2cc(F)ccc2n1 [Compound 67, N-((5-(2-((6-fluoro-2-methylquinazolin-4-yl)thio)acetyl)thiophen-2-yl)methyl)-2-hydroxyacetamide]
≤ 100 | CCc1nc(SCC(=O)c2ccc(CNC(=O)CO)s2)c2ccccc2n1 [Compound 62, N-((5-(2-((2-ethylquinazolin-4-yl)thio)acetyl)thiophen-2-yl)methyl)-2-hydroxyacetamide]
100 to 500 | O=C(CO)NCc1ccc(C(=O)CSc2nccc3cccnc23)s1 [Example 165, N-((5-(2-((1,7-naphthyridin-8-yl)thio)acetyl)thiophen-2-yl)methyl)-2-hydroxyacetamide]
1000 to 10000 | O=C(CO)NCc1ccc(C(=O)CSc2nc3cc(Cl)cnc3[nH]2)s1 [Example 166, N-((5-(2-((6-chloro-3H-imidazo[4,5-b]pyridin-2-yl)thio)acetyl)thiophen-2-yl)methyl)-2-hydroxyacetamide]
